Data from patent US4791215A, “Derivatives of glutamic acid and aspartic acid” (priority 1984, dated 1988).

Assays:
[1] = system: morphine analgesia; assay: Increase in analgesia of morphine, Tail Flick Test (Experiment 1); type: in vivo, rats; conditions: for M (10-90) ± SE, mean percentage variation of latency: mean 10-90 min; for Power ratio with respect to morphine alone: rat, in vivo
How it was run: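 Non-fasted male rats (150-200 g); a tail point is exposed to a 75 °C heat source and latency to tail movement recorded, 8 s cut-off. Readings taken before and 10, 20, 30, 45, 60 and 90 min after analgesic treatment; percentage variation calculated per animal.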

[2] = system: CCK-8 induced contraction of guinea pig gall bladder; assay: Anti-CCK activity on gall bladder strips in vitro; conditions: CCK-8 10 ng/ml
How it was run: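 Longitudinal guinea pig gall bladder strips in Krebs at 32 °C, gassed with O2/CO2 95:5, were contracted with 10 ng/ml CCK-8. Isometric force was recorded across several compound concentrations, and ED50 was taken as the μg/ml concentration antagonising 50% of the CCK contraction.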

[3] = system: intestinal transit of carbon; assay: Anti-spastic activity, vegetable carbon intestinal transit test; type: in vivo, mice; conditions: Mus musculus, ip; read-out: antispastic activity ED50 (dose reducing intestinal transit of carbon by 50%)
Text: The anti-spastic activity which the present compounds exert on the entire digestive system is also notable. Measured in mice with the vegetable carbon test (rate of transit through the stomach and the intestine), this activity is illustrated in the following table.
claimed administered intraperitoneally in mice. Values
expressed as the ED 50 in mg/kg, that is the dose which
reduces the intestinal transit of carbon by 50%

[4] = system: tolerance induced by morphine; assay: Antagonism to development of tolerance to repeated morphine HCl, Tail Flick Test (Experiment 5)
Protocol: Experiment No. 5: Antagonism of several products of the invention to the development of tolerance induced in rats by the repeated administration of morphine HCl.
Several of the compounds of the invention were examined to determine their possible capacity to antagonise the development of tolerance induced by morphine. Groups of 6 male rats having a weight of about 200-250 grams were used.
At intervals of 24 hours from the first treatment (time 0) each animal (except the control group treated physiologically) received 5 mg/kg of morphine hydrochloride i.p. together with 10 mg/kg i.p. of the compounds indicated (with the exception of the group treated solely with morphine).
The determination of the pain threshold was effected 15', 30', 45' and 60' from the treatment by the Tail Flick Test.

[5] = 10', compound 10 mg/kg i.p. + morphine 2 mg/kg
[6] = 20', compound 10 mg/kg i.p. + morphine 2 mg/kg
[7] = 30', compound 10 mg/kg i.p. + morphine 2 mg/kg
[8] = 45', compound 10 mg/kg i.p. + morphine 2 mg/kg
[9] = 60', compound 10 mg/kg i.p. + morphine 2 mg/kg
[10] = 90', compound 10 mg/kg i.p. + morphine 2 mg/kg
[11] = compound 10 mg/kg i.p. + morphine 2 mg/kg

In the case of `CCCCN(CCCC)C(=O)CCC(NC(=O)c1cccc(C#N)c1)C(=O)O` [Compound D-5], the “percentage variation of latency of pain sensation” value [1, 5] is reported as 72.2%, the “percentage variation of latency of pain sensation” value [1, 6] is reported as 92.5 ± 7.0% and the “percentage variation of latency of pain sensation” value [1, 7] is reported as 95.3 ± 5.0%. For the same compound, the “percentage variation of latency of pain sensation” value [1, 8] was 96.0 ± 4.0%, the “percentage variation of latency of pain sensation” value [1, 9] was 74.3 ± 11.0% and the “percentage variation of latency of pain sensation” value [1, 10] was 75.5%. The “M (10-90) ± SE, mean percentage variation of latency” value [1, 11] was 84.3 ± 11.4%, the “Power ratio with respect to morphine alone” value (“Power ratio” below) [1] was 2.83 and the “ED50 (concentration antagonising 50% of contracting effect of CCK-8)” value [2] was greater than 200 µg/mL. For the same compound, the ED50 [3] was 74.9 mg/kg.
With `CCCN(CCC)C(=O)C(CCC(=O)O)NC(=O)c1cccc(C)c1` (stereo not drawn) [Compound C-28] the “percentage variation of latency of pain sensation” value [1, 5] was 15.7 ± 10%, the “percentage variation of latency of pain sensation” value [1, 6] was 66.8 ± 18% and the “percentage variation of latency of pain sensation” value [1, 7] was 68.3 ± 20%. For the same compound, the “percentage variation of latency of pain sensation” value [1, 8] was 68.4 ± 17%, the “percentage variation of latency of pain sensation” value [1, 9] was 74.5 ± 11% and the “percentage variation of latency of pain sensation” value [1, 10] was 27.5 ± 15%. The “M (10-90) ± SE, mean percentage variation of latency” value [1, 11] was 53.5 ± 25%, the “Power ratio” value [1] was 1.80 and the “ED50 (concentration antagonising 50% of contracting effect of CCK-8)” value [2] was greater than 300 µg/mL. The ED50 [3] was 91.8 mg/kg.
For `CN1CC[C@]23c4c5ccc(O)c4O[C@H]2[C@@H](O)C=C[C@H]3[C@H]1C5` [Morphine, reference compound], the “percentage variation of latency of pain sensation” value ([1]; 10', morphine 2 mg/kg alone) was 10.8 ± 4.0%, the “percentage variation of latency of pain sensation” value ([1]; 10', morphine 2 mg/kg alone, listed as Morphene) was 10.8% and the “percentage variation of latency of pain sensation” value ([1]; 20', morphine 2 mg/kg alone) was 54.2 ± 17.0%. For the same compound, the “percentage variation of latency of pain sensation” value ([1]; 20', morphine 2 mg/kg alone, listed as Morphene) was 54.2 ±17%, the “percentage variation of latency of pain sensation” value ([1]; 30', morphine 2 mg/kg alone) was 46.6 ± 21.0% and the “percentage variation of latency of pain sensation” value ([1]; 30', morphine 2 mg/kg alone, listed as Morphene) was 46.6 ± 21%. For the same compound, the “percentage variation of latency of pain sensation” value ([1]; 45', morphine 2 mg/kg alone) was 41.7 ± 16.0%, the “percentage variation of latency of pain sensation” value ([1]; 45', morphine 2 mg/kg alone, listed as Morphene) was 41.7% and the “percentage variation of latency of pain sensation” value ([1]; 60', morphine 2 mg/kg alone) was 32.0%. For the same compound, the “percentage variation of latency of pain sensation” value ([1]; 60', morphine 2 mg/kg alone, listed as Morphene) was 32 ± 17%, the “percentage variation of latency of pain sensation” value ([1]; 90', morphine 2 mg/kg alone) was -6.4 ± 10.0% and the “percentage variation of latency of pain sensation” value ([1]; 90', morphine 2 mg/kg alone, listed as Morphene) was -6.4 ± 10%. The “M (10-90) ± SE, mean percentage variation of latency” value ([1]; morphine 2 mg/kg alone) was 29.8 ± 23.0%, the “M (10-90) ± SE, mean percentage variation of latency” value ([1]; morphine 2 mg/kg alone, listed as Morphene) was 29.8% and the “day at which activity reaches level of inactivity (0)” value ([4]; from the straight lines of regression) was “fell to 0 on the sixth day of treatment”. The “percentage variation in latency time (Effect %)” value ([4]; morphine 5 mg/kg i.p. alone, 24 h) was 42.09%, the “percentage variation in latency time (Effect %)” value ([4]; morphine 5 mg/kg i.p. alone, 48 h) was 26.54% and the “percentage variation in latency time (Effect %)” value ([4]; morphine 5 mg/kg i.p. alone, 72 h) was 19.96%. For the same compound, the “percentage variation in latency time (Effect %)” value ([4]; morphine 5 mg/kg i.p. alone, 96 h) was 10.79%, the “percentage variation in latency time (Effect %)” value ([4]; morphine 5 mg/kg i.p. alone, 120 h) was 4.45% and the “percentage variation in latency time (Effect %)” value ([4]; morphine 5 mg/kg i.p. alone, 168 h) was 2.12%. The “percentage variation in latency time (Effect %)” value ([4]; morphine 5 mg/kg i.p. alone, time 0) was 58.03% and the “activity versus controls / morphine group during treatment” value ([4]; up to 168 hours) was “not significantly different from the control group”.
In the case of `CCCCN(CCCC)C(=O)CCC(NC(=O)c1ccc(C#N)cc1)C(=O)O` [Compound D-8], the “percentage variation of latency of pain sensation” value [1, 5] is reported as 29.0 ± 15.0%, the “percentage variation of latency of pain sensation” value [1, 6] is reported as 50.9% and the “percentage variation of latency of pain sensation” value [1, 7] is reported as 61.4 ± 22.0%. For the same compound, the “percentage variation of latency of pain sensation” value [1, 8] was 57.7 ± 18.0%, the “percentage variation of latency of pain sensation” value [1, 9] was 52.9 ± 20.0% and the “percentage variation of latency of pain sensation” value [1, 10] was 28.3 ± 12.0%. For the same compound, the “M (10-90) ± SE, mean percentage variation of latency” value [1, 11] was 46.7 ± 14.4%, the “Power ratio” value [1] was 1.56 and the “ED50 (concentration antagonising 50% of contracting effect of CCK-8)” value [2] was greater than 200 µg/mL. For the same compound, the “percentage variation in latency time (Effect %)” value ([4]; compound 10 mg/kg + morphine 5 mg/kg i.p., 24 h) was 43.65%, the “percentage variation in latency time (Effect %)” value ([4]; compound 10 mg/kg + morphine 5 mg/kg i.p., 48 h) was 32.80% and the “percentage variation in latency time (Effect %)” value ([4]; compound 10 mg/kg + morphine 5 mg/kg i.p., 72 h) was 31.78%. For the same compound, the “percentage variation in latency time (Effect %)” value ([4]; compound 10 mg/kg + morphine 5 mg/kg i.p., 96 h) was 35.45%, the “percentage variation in latency time (Effect %)” value ([4]; compound 10 mg/kg + morphine 5 mg/kg i.p., 120 h) was 42.08% and the “percentage variation in latency time (Effect %)” value ([4]; compound 10 mg/kg + morphine 5 mg/kg i.p., 144 h) was 29.33%. For the same compound, the “percentage variation in latency time (Effect %)” value ([4]; compound 10 mg/kg + morphine 5 mg/kg i.p., 168 h) was 19.17% and the “percentage variation in latency time (Effect %)” value ([4]; compound 10 mg/kg + morphine 5 mg/kg i.p., time 0) was 47.32%.
